Data published in patent publication US20250017907A1, “METHOD FOR PREVENTING AND/OR TREATING LIVER FIBROSIS BY USING 6-METHOXYBENZOXAZOLINONE AND COIX LACHRYMA-JOBI L. EXTRACT COMPRISING 6-METHOXYBENZOXAZOLINONE” (Taichung District Agricultural Research and Extension …, priority 2023, published 2025).

How the values were obtained:
[1] = tested on: TGF-β/SMAD signaling pathway; experiment: Western blot of TGF-β/SMAD signaling pathway proteins; assay type: cell-based, rat; details: HSC-T6, TGF-β1 10 ng/mL, CX 10-100 μM
Protocol: The procedure of cell cultures is as follows. HSC-T6 cell is an immortalized cell line isolated from transformed SV40 large T-antigen transformed primary stellate cells of male Sprague-Dawley rats. HSC-T6 cells were maintained in Dulbecco's Modified Eagle Medium (DMEM, Sigma-Aldrich, USA) containing 8% fetal bovine serum (FBS, HyClone, USA), 100 U/mL of penicillin, and 100 μg/mL of streptomycin (Gibco, USA).
For hepatic stellate cell (HSC) activation, cells were cultured for 24 h and then replaced with serum-free medium for 24 h, after that, treated with transforming growth factor beta 1 (TGF-β1) (10 ng/mL) in the presence or absence of CX (10-100 μM) or adlay leaf, root, and seed extracts (25 and 50 μg/mL) for 24 h, or 30 min for intracellular signal pathways.
The procedure of Western blot analysis is as follows. Cells were lysed in RIPA buffer with protease inhibitor and then centrifuged at 4° C., 12000 rpm for 10 min. Collected the supernatant and quantified the total protein concentration to 50 μg. After heating at 95° C. for 10 min, the protein samples were separated by SDS-PAGE gel, transferred to PVDF membrane, followed by blocking with 6% milk, incubated with primary antibodies at 4° C., overnight and secondary antibodies at room temperature for 1 h. Blot images were visualized on Amersham Imager 680 (Cytiva, USA) with ECL agent (GeneDireX, USA).

[2] = tested on: TAA-induced liver fibrotic C57BL/6J mice; experiment: Oxidative stress indicator tests in liver (SOD, CAT, GSH, MDA); assay type: in vivo; details: 6 weeks, vs TAA group
Protocol: (§1) For tests of CX, mice were randomly divided into the following four groups (n=8, per group): (1) NT group, (2) TAA group (200 mg/kg), (3) CX group (CX20, 20 mg/kg), and (4) CX group (CX50, 50 mg/kg). NT group received pure saline, and other groups intraperitoneally injected with TAA dissolved into saline thrice a week. Moreover, NT group and TAA group also received 5% propylene glycol, while CX groups received CX dissolved into 5% propylene glycol (prepared in 0.9% saline) by oral gavage once per day.
To examine the effects of CX on liver fibrosis, this example established a TAA-induced liver fibrotic C57BL/6J mouse model. FIG. 6 is a schematic diagram of animal experiment design in 6-methoxybenzoxazolinone (6-MBOA) (CX) groups. For animal experiments, 6-week-old C57BL/6J mice were randomly divided into four groups including NT, TAA, CX20 (TAA+20 mg/kg CX), CX50 (TAA+50 mg/kg CX). (n=8 per group). Mice were given intraperitoneal injection of TAA thrice a week to induce liver fibrosis; they also received CX or the vehicle by oral gavage once per day. At the end of animal tests, mice were sacrificed at 12 weeks of age. Six-week-old mice were randomly divided into four groups, namely NT, TAA, CX20 and CX50 (FIG. 6). Among these groups, only the NT group was oral gavaged and administered with vehicle, the TAA group was oral gavaged with vehicle and administered with TAA, and the CX groups were oral gavaged with CX and administered with TAA. Oral gavage was performed once a day while intraperitoneal injection was given thrice a week; both oral gavage and intraperitoneal injection were continuously administered for six weeks. After that, the mice were sacrificed, and their liver tissues and serum were collected for subsequent analyses.
The procedure of oxidative stress indicator tests is as follows. The enzyme activity of catalase (CAT) and superoxide dismutase (SOD), the content of malondialdehyde (MDA), and the concentration of glutathione (GSH) in tissue were tested to examine changes in oxidative stress levels in TAA-induced liver fibrotic mice. […] All of the kits were commercial products, the working protocol followed the manufacturer's instructions. Briefly, the liver tissue was homogenized in ice-cold buffer and centrifuged at 4° C., then collected supernatant for analysis, finally, read the absorbance of samples with ELISA reader (TECAN, Switzerland).

[3] = tested on: TAA-induced liver fibrotic C57BL/6J mice; experiment: Liver weight, body weight and liver index; assay type: in vivo; details: CX groups (20 and 50 mg/kg oral, 6 weeks); vs TAA group
Protocol: For tests of adlay extracts, mice were randomly divided into the following seven groups (n=6, per group): (1) No treatment group (NT, normal diet), (2) Thioacetamide group (TAA, 200 mg/kg, normal diet), (3) 10% adlay seed powder (ASP) group, (4) 1% adlay leaf powder (ALP) group, (5) 1% adlay seed polysaccharide (ASPS) group, (6) 0.025% adlay seed ethanolic extract (ASE) group and (7) 0.1% ASE group. NT group received pure saline, and other groups intraperitoneally injected with TAA dissolved into saline thrice a week.
as §1
The procedure of the schematic diagram of animal experiment design in adlay groups is described as follows. To examine the effects of adlay on liver fibrosis, this example established a TAA-induced liver fibrotic C57BL/6J mouse model. FIG. 1 is a schematic diagram of animal experiment design in adlay groups. In this experiment, C57BL/6J mice were intraperitoneally injected with thioacetamide (TAA) to induce liver fibrosis. At six weeks of age, the mice were randomly divided into seven groups fed with different diets (NT, TAA, 10% ASP, 1% ALP, 1% ASPS, 0.025% ASE and 0.1% ASE, n=6). After co-feeding for 6 weeks during which intraperitoneal injection of TAA was administered thrice a week, the mice were finally sacrificed at 12 weeks of age. NT represents no treatment, ASP represents adlay seed powder, ALP represents adlay leaf powder, ASPS represents adlay seed polysaccharide, and ASE represents adlay seed ethanolic extract. […]

COc1ccc2[nH]c(=O)oc2c1 [CX, 6-methoxybenzoxazolinone]
NOX4 expression (Western blot) [1]: decreased
SNAIL1/2 expression (Western blot) [1]: decreased
TWIST1/2 expression (Western blot) [1]: decreased
ZEB1 expression (Western blot) [1]: decreased
TGF-β1-stimulated SMAD2 phosphorylation (p-SMAD2, Western blot) ([1]; 30 min): decreased with increasing dose
TGF-β1-stimulated SMAD3 phosphorylation (p-SMAD3, Western blot) ([1]; 30 min): decreased with increasing dose
liver CAT activity ([2]; CX20: 20 mg/kg oral): increased
liver GSH content ([2]; CX20: 20 mg/kg oral): increased
liver MDA content ([2]; CX20: 20 mg/kg oral): decreased
liver CAT activity ([2]; CX50: 50 mg/kg oral): increased
liver GSH content ([2]; CX50: 50 mg/kg oral): increased
liver MDA content ([2]; CX50: 50 mg/kg oral): decreased
liver SOD activity ([2]; CX50: 50 mg/kg oral): significantly increased
change in body weight caused by TAA [3]: did not significantly improve
liver index (ratio of liver weight to body weight) [3]: decreased significantly
liver weight [3]: reduced
